{"source": "patent US10073083B2", "about": "“Prophylactic and therapeutic agents for FGFR3 diseases and screening method for the same” (KYOTO UNIVERSITY, priority 2013, dated 2018)", "key": {"TD-iPSCs [1]": {"test_system": "TD-iPSCs", "experiment": "Chondrogenic differentiation of TD-iPSCs, cartilaginous extracellular matrix by safranin O staining", "assay_type": "cell-based, human", "settings": "day 42; for chondrogenic differentiation / cartilage formation of TD-iPSCs (safranin O): statin 1 μM in cartilage differentiation medium; for chondrogenic differentiation of TD-iPSCs (safranin O): TD714-3, CNP 100 nM, NF449 25 μM, FGFR inhibitor 1 μM, IGF1R inhibitor 1 nM", "experimental": "(§1) The iPS cell lines were transferred to Matrigel (Invitrogen)-coated dishes, then Essential 8 medium (Life Technologies) supplemented with 50 units/ml penicillin and 50 μg/ml streptomycin was added, and the cell lines were cultured for undifferentiated maintenance under the feeder-free conditions. The iPS cell lines formed colonies that consisted of 1 to 2×10^5 cells 10 to 15 days after seeding, and the medium was changed to mesodermal differentiation medium (DMEM/F12 supplemented with 10 ng/ml Wnt3A (R&D), 10 ng/ml activin A (R&D), 1% insulin-transferrin-sodium selenite (Invitrogen), 1% fetal calf serum, 50 units/ml penicillin and 50 μg/ml streptomycin) (day zero of differentiation). Three days after (day 3 of differentiation), the medium was changed to cartilage differentiation medium (DMEM/F12 supplemented with 50 μg/ml ascorbic acid, 10 ng/ml BMP2 (Osteopharma), 10 ng/ml TGFβ (PeproTech), 10 ng/ml GDF5, 1% insulin-transferrin-sodium selenite, 1% FBS, 50 units/ml penicillin and 50 μg/ml streptomycin). Eleven days after (day 14 of differentiation), the cells were physically separated from the dishes, and transferred to a suspension culture in the same medium. Fourteen days after transfer (day 28 of differentiation) and 28 days after transfer (day 42 of differentiation), the cells formed particles and the particles were harvested for analyses. The culture medium was changed every 2 to 7 days during differentiation.\nFGFR3 neutralizing antibody was added to the medium during the chondrogenic differentiation of TD-iPSCs to inhibit FGFR3 activity, and chondrocyte formation was assessed. The FGFR3 neutralizing antibody (Santa Cruz (sc-13121)) was added as 1 μl of an antibody solution (200 ng/ml) in 1 ml of cartilage differentiation medium. As a control, IgG (Cell Signaling, #27295) was used. The chondrogenic differentiation was performed in the same manner as in Example 2, and the cartilaginous particles were assessed on days 28 and 42 of differentiation.\n(§2) Several drugs that had previously been reported to affect FGFR3 signaling and/or chondrocyte differentiation (CNP, NF449, a FGFR inhibitor, and an IGF1R inhibitor) were selected, and their ability to rescue TD-iPSCs from failure of chondrogenic differentiation was investigated. The stock CNP (Sigma, N8768), NF449 (Abcam, ab120415), a FGFR inhibitor (PD 173047, Cayman) and an IGF1R inhibitor (IGF-1R inhibitor, PPP. Calbiochem, 407247) solutions were prepared at a concentration of 100 μM, 50 mM, 1 mM, 1 μM, respectively. The stock solutions were added to cartilage differentiation medium at the final concentrations of CNP, NF449, the FGFR inhibitor and the IGF1R inhibitor of 100 nM, 25 μM 1 μM, and 1 nM, respectively (day 3 of differentiation). TD-iPSCs were chondrogenically differentiated in the same manner as in Example 2, and the cartilaginous particles were assessed on days 28 and 42 of differentiation. As a control, an equal volume of water or DMSO was added to the medium. mRNA expression analysis was performed in the same manner as in Example 1.\nTo investigate whether lovastatin rescues TD-iPSCs from failure of chondrogenic differentiation, evaluation was performed in the same manner as in Example 4. A stock lovastatin (TCI, L0214) solution was prepared by dissolving it in DMSO at a concentration of 10 mM, and the solution was added to cartilage differentiation medium at a final concentration of 1 μM."}, "TD-iPSCs [2]": {"test_system": "TD-iPSCs", "experiment": "Real-time RT-PCR expression analysis of chondrocyte and fibroblast marker genes in chondrogenically differentiated TD-iPSCs", "assay_type": "cell-based, human", "settings": "TD714-3; CNP 100 nM, IGF1R inhibitor 1 nM; day 28", "experimental": "mRNAs were isolated from the cell lines using RNeasy Mini Kit (Qiagen). A total of 500 ng of the total RNA was used as a template for cDNA synthesis by reverse transcription using ReverTra Ace system (TOYOBO). Standard curves for quantitative PCR (real-time PCR) were established and used for analyses. Real-time PCR analysis was performed in Step One system (ABI) using KAPA SYBR FAST qPCR kit Master Mix ABI Prism (KAPA BIOSYSTEMS).\nas §1, §2"}, "[3]": {"test_system": "TD-iPSC-derived cartilaginous particles", "experiment": "Incorporation of BrdU by TD-iPSC-derived cartilaginous particles", "assay_type": "cell-based, human", "settings": "presence vs absence of statin, 1 μM; day 28"}, "FGFR3^Ach mice": {"test_system": "FGFR3^Ach mice", "experiment": "Bone growth of ACH model mice treated with statins, X-ray imaging", "assay_type": "in vivo, mouse", "settings": "day 3 to day 14, 15 days old", "experimental": "The FGFR3^Ach mice were crossed with wild-type mice (C57BL/6 background). A rosuvastatin solution at a dose of 1.0 mg/kg was intraperitoneally administered to the crossed mice 6 times per week from 3 days after birth until day 14. The mice were euthanized on day 15, and the bodies and the bone formation were examined by X-ray imaging (Faxitron DX-50). Genomic DNA was extracted from the toes of each mouse and subjected to genotype analysis. Also, a lovastatin solution at a dose of 0.4 mg/kg was intraperitoneally administered to the crossed mice 6 times per week from day 3 after birth until day 28, and the mice were euthanized on day 29 for examination of the bodies and the bone formation in the same manner as above."}, "FGFR3": {"test_system": "FGFR3", "experiment": "Western blotting of FGFR3 in primary chondrocytes", "assay_type": "cell-based, mouse", "experimental": "Cell lysates were separated by SDS-PAGE. The separated proteins were immunostained with anti-FGFR3 antibody (Cell Signaling, #4574), anti-phosphorylated MAPK antibody (Cell Signaling, #9109) or anti-β-actin antibody (Cell Signaling, #49776).\nThe investigation of the effects of the inhibitors was performed as follows. A total of 2.5×10^5 primary chondrocytes were plated in each well of a six-well plate, and were cultured in the presence or absence of 1 μM lovastatin for 2 days. Then, the culture was supplemented with […] MG132, 100 nM Baf A1 or vehicle. Two hours later, the culture was further supplemented with 50 ng/ml FGF9 (PeproTech) and incubated at 4° C. for 2 hours. Then cells were collected and subjected to analysis by Western blotting."}, "[4]": {"settings": "rosuvastatin 1.0 mg/kg intraperitoneally 6 times per week"}}, "note": "Ends that are not written are not given here. Peptide text beside a SMILES is read from it. * marks the point of attachment. Cbz = O=C(OCc1ccccc1)*", "data": [{"compound": "CC[C@H](C)C(=O)O[C@H]1CCC=C2C=C[C@H](C)[C@H](CC[C@@H]3C[C@@H](O)CC(=O)O3)[C@H]21", "note": "[mevastatin]", "values": [{"measurement": "chondrogenic differentiation / cartilage formation of TD-iPSCs (safranin O)", "setting": "TD-iPSCs [1]", "value": "rescued abnormal cartilage formation in the TD-iPSC-derived chondrocytes"}]}, {"compound": "CCN(CC)CCCCNc1ncc2cc(-c3cc(OC)cc(OC)c3)c(NC(=O)NC(C)(C)C)nc2n1", "note": "[FGFR inhibitor, PD 173047]", "values": [{"measurement": "chondrogenic differentiation of TD-iPSCs (safranin O)", "setting": "TD-iPSCs [1]", "value": "had no effect on the chondrogenic differentiation of TD-iPSCs"}]}, {"compound": "CC(C)c1c(C(=O)Nc2ccccc2)c(-c2ccccc2)c(-c2ccc(F)cc2)n1CC[C@@H](O)C[C@@H](O)CC(=O)O", "note": "[atorvastatin]", "values": [{"measurement": "chondrogenic differentiation / cartilage formation of TD-iPSCs (safranin O)", "setting": "TD-iPSCs [1]", "value": "rescued abnormal cartilage formation in the TD-iPSC-derived chondrocytes"}]}, {"compound": "O=C(Nc1cc(C(=O)Nc2ccc(S(=O)(=O)O)cc2S(=O)(=O)O)cc(C(=O)Nc2ccc(S(=O)(=O)O)cc2S(=O)(=O)O)c1)Nc1cc(C(=O)Nc2ccc(S(=O)(=O)O)cc2S(=O)(=O)O)cc(C(=O)Nc2ccc(S(=O)(=O)O)cc2S(=O)(=O)O)c1", "note": "[NF449]", "values": [{"measurement": "chondrogenic differentiation of TD-iPSCs (safranin O)", "setting": "TD-iPSCs [1]", "value": "had no effect on the chondrogenic differentiation of TD-iPSCs"}]}, {"compound": "c-type natriuretic peptide (GLSKGCFGLKLDRIGSMSGLGC; ends and bridges not checked; cysteine pairing not given here; UniProt P23582 105-126, looked up) [CNP, c-type natriuretic peptide (Sigma, N8768)]", "values": [{"measurement": "chondrogenic differentiation of TD-iPSCs (safranin O)", "setting": "TD-iPSCs [1]", "value": "rescued TD-iPSCs from failure of chondrogenic differentiation"}, {"measurement": "expression of chondrocyte marker genes (SOX9, COL2, AGGRECAN)", "setting": "TD-iPSCs [2]", "value": "increased the expression of chondrocyte marker genes"}, {"measurement": "expression of fibroblast marker genes (COL1A1, COL1A2)", "setting": "TD-iPSCs [2]", "value": "decreased the expression of fibroblast marker genes"}]}, {"compound": "CC(C)c1nc(N(C)S(C)(=O)=O)nc(-c2ccc(F)cc2)c1/C=C/[C@@H](O)C[C@@H](O)CC(=O)O", "note": "[rosuvastatin]", "values": [{"measurement": "number of BrdU-positive cells", "setting": "[3]", "value": "significantly increased the number of BrdU-positive cells"}, {"measurement": "chondrogenic differentiation / cartilage formation of TD-iPSCs (safranin O)", "setting": "TD-iPSCs [1]", "value": "rescued abnormal cartilage formation in the TD-iPSC-derived chondrocytes"}, {"measurement": "anteroposterior lengths of the skulls (Cranial A-P)", "setting": "FGFR3^Ach mice; [4]", "value": "increased"}, {"measurement": "lengths of the femurs (Femur)", "setting": "FGFR3^Ach mice; [4]", "value": "increased"}, {"measurement": "lengths of the tibiae (Tibia)", "setting": "FGFR3^Ach mice; [4]", "value": "increased"}, {"measurement": "lengths of the ulnas (Ulna)", "setting": "FGFR3^Ach mice; [4]", "value": "increased"}, {"measurement": "differences in the lengths vs wild-type mice receiving vehicle", "setting": "FGFR3^Ach mice; rosuvastatin 1.0 mg/kg intraperitoneally, t-test", "value": "no significant differences"}]}, {"compound": "CO/C1=C\\C(C)=C\\[C@@H](C)[C@@H](O)[C@@H](C)C/C(C)=C/C=C/[C@H](OC)[C@@H]([C@@H](C)[C@@H](O)[C@H](C)[C@@]2(O)C[C@@H](O)[C@H](C)[C@@H](C(C)C)O2)OC1=O", "note": "[Bafilomycin A1]", "values": [{"measurement": "expression of FGFR3", "setting": "FGFR3; FGFR3^Ach chondrocytes in the presence of 1 μM lovastatin, 100 nM Baf A1", "value": "slightly increased"}]}, {"compound": "COc1cc([C@@H]2c3cc4c(cc3[C@H](O)[C@H]3COC(=O)[C@@H]23)OCO4)cc(OC)c1OC", "note": "[IGF1R inhibitor]", "values": [{"measurement": "chondrogenic differentiation of TD-iPSCs (safranin O)", "setting": "TD-iPSCs [1]", "value": "rescued TD-iPSCs from failure of chondrogenic differentiation"}, {"measurement": "expression of chondrocyte marker genes (SOX9, COL2, AGGRECAN)", "setting": "TD-iPSCs [2]", "value": "increased the expression of chondrocyte marker genes"}, {"measurement": "expression of fibroblast marker genes (COL1A1, COL1A2)", "setting": "TD-iPSCs [2]", "value": "decreased the expression of fibroblast marker genes"}]}, {"compound": "CC(C)C[C@@H](C=O)NC(=O)[C@H](CC(C)C)NC(=O)[C@H](CC(C)C)NC(=O)OCc1ccccc1", "note": "[MG132] (Cbz-Leu-Leu-Leu-aldehyde)", "values": [{"measurement": "amount of FGFR3", "setting": "FGFR3; FGFR3^Ach chondrocytes cultured in the presence of 1 μM lovastatin, 10 mM MG132", "value": "increased the amount of FGFR3"}]}]}
